Laboratory results from article PMC8522701 (Journal of nuclear medicine : official publication, Society …, 2012).

How the values were obtained:
[1] = system: VLA-4–negative MDA-MB-231/fluc human breast cancer tumor cells; assay: Cellular uptake assay, VLA-4-negative MDA-MB-231/fluc cells; assay type: cell-based; conditions: coincubation with 1 μM nonradioactive ligand, 60 min, 37°C; P = 0.3
[2] = system: VLA-4–positive B16F10 mouse melanoma cells; assay: Cellular uptake assay, VLA-4-positive B16F10 cells; assay type: cell-based; conditions: 60 min, 37°C, P < 0.05
[3] = system: Raji lymphoma mouse model; conditions: in vivo; cited from earlier work

**Q.** Which “blocking of cellular uptake with cold LLP2A in MDA-MB-231/fluc cells” value [1] does the source give for “^64Cu-labeled 11-bis(carboxymethyl)-1,4,8,11-tetraazabicyclo[6.6.2] hexadecane (CB-TE2A)-LLP2A [^64Cu-CB-TE2A-LLP2A]” here?
**A.** no significant blocking

**Q.** What about the “cellular uptake (sum of internalized and cell surface-bound fractions) in B16F10 cells relative to MDA-MB-231 cells” value ([2]; 1 nM tracer, cpm/mg protein) of the same substance?
**A.** higher

**Q.** What about the “blocking of cellular uptake with cold LLP2A in B16F10 cells” value ([2]; coincubation with 1 μM nonradioactive ligand) of the same substance?
**A.** blocking with cold LLP2A was observed

**Q.** And the “tracer uptake in tissues of Raji lymphoma mouse model” value [3]?
**A.** uptake in the tumor, spleen, and bone marrow
